{
  "source": "patent US5629298A",
  "about": "“Adenosine as a positive inotrop in the compromised heart” (University of Massachusetts Medical Center, priority 1995, dated 1997)",
  "test_system": "rat heart",
  "test": "Isolated perfused heart, normoperfused or hypoperfused (mechanically depressed): LVP, +dP/dtmax, -dP/dtmax",
  "settings": "for activation at 0.01 µM: Rattus norvegicus, 5 seconds; for activation at 0.01 µM / effect on the contractile variables (LVP, +dP/dtmax, -dP/dtmax): normoperfusion; for activation at 0.01 µM / increase in +dP/dtmax / increase in -dP/dtmax / increase in LVP: isoproterenol 10^-8 M; for increase in +dP/dtmax / increase in -dP/dtmax / increase in LVP: hypoperfusion (mechanically depressed heart); for increase in +dP/dtmax / increase in -dP/dtmax / increase in LVP / effect on the contractile variables (LVP, +dP/dtmax, -dP/dtmax): adenosine 2×10^-5 M, DPCPX 2×10^-7 M; for effect on the contractile variables (LVP, +dP/dtmax, -dP/dtmax): CGS-21680 2×10^-6 M",
  "method": "Male Sprague-Dawley rats (500-550 g) were anesthetized with pentobarbital (40 mg/kg, i.p.) and treated with heparin (500 units, i.p.) for 15 minutes. Hearts were excised, rinsed in iced physiological saline (\"PS\") and perfused with PS (37° C.) via an aortic cannula at a constant rate of 18-20 ml/min. Perfusion pressure ranged from 50 to 60 mm Hg. The PS contained: NaCl, 118 mM; KCl, 4.7 mM; CaCl2, 2.5 mM; NaHCO3, 25 mM; KH2 PO4, 1.2 mM; MgSO4 1.2 mM; glucose 10 mM; and pyruvate 1.8 mM. The pH was maintained at 7.4 by gassing the PS with a 95% O2 /5% CO2 gas mixture. Platinum wire electrodes were inserted into the right atrium to allow pacing of the heart (300 contractions per minute) throughout the perfusion period. Developed left ventricular pressure (LVP) was measured with a saline-filled balloon inserted into the lumen of the left ventricle via the left atrium and attached by a polyethylene cannula to a pressure transducer. The pressure signal was electronically differentiated to obtain the maximum rates of left ventricular pressure development (+dP/dtmax) and relaxation (-dP/dtmax). Balloon volume was varied until the maximal obtainable dP/dt was attained. This optimal preload, ranging from 5 to 10 mm Hg, was maintained constant, permitting isovolumic contraction of the heart. Aortic perfusion pressure was monitored with another pressure transducer. All the LVP, +dP/dtmax, -dP/dtmax and aortic perfusion data were continually recorded on a multichannel polygraph. At the end of the experiment, the wet heart weights were determined; they ranged from 1.4 to 1.8 g.\nAfter instrumentation, the hearts were normoperfused at 18-20 ml/min for 20 minutes, resulting in an aortic perfusion pressure of 50-60 mm Hg. Isoproterenol, adenosine, CGS-21680, DPCPX, atenolol, or a combination of these agents was administered for 1 to 2 minutes, via the aortic perfusion cannula, at 1/100th the perfusion flow rate, to achieve the stated PS concentrations. Isoproterenol was administered for only 5 seconds. To cause mechanical depression of the perfused hearts, the perfusion flow was lowered 5-6 ml/min. The resulting aortic perfusion pressure decreased to 20-30 mm Hg. The various agents either alone or in combination were administered via the PS to the hypoperfused hearts at 1/100th the perfusion flow rate, at the concentrations indicated.",
  "note": "Like-named read-outs stand apart in the source and are kept apart here.",
  "data": [
    {"compound": "CC(C)NCC(O)c1ccc(O)c(O)c1", "note": "(centres unmarked) [ISO, isoproterenol]", "values": [
      {"measurement": "activation at 0.01 µM", "setting": "read-out: increase in +dP/dtmax", "value": 167, "unit": "%"},
      {"measurement": "activation at 0.01 µM", "setting": "read-out: increase in -dP/dtmax", "value": 216, "unit": "%"},
      {"measurement": "activation at 0.01 µM", "setting": "read-out: increase in LVP", "value": 119, "unit": "%"},
      {"measurement": "increase in +dP/dtmax", "value": 114, "unit": "%"},
      {"measurement": "increase in -dP/dtmax", "value": 225, "unit": "%"},
      {"measurement": "increase in LVP", "value": 171, "unit": "%"}
    ]},
    {"compound": "Nc1ncnc2c1ncn2[C@@H]1O[C@H](CO)[C@@H](O)[C@H]1O", "note": "[adenosine]", "values": [
      {"measurement": "increase in +dP/dtmax", "value": 25, "unit": "%"},
      {"measurement": "increase in -dP/dtmax", "value": 33, "unit": "%"},
      {"measurement": "increase in LVP", "value": 26, "unit": "%"},
      {"measurement": "effect on the contractile variables (LVP, +dP/dtmax, -dP/dtmax)", "value": "did not affect"}
    ]},
    {"compound": "CCNC(=O)[C@H]1O[C@@H](n2cnc3c(N)nc(NCCc4ccc(CCC(=O)O)cc4)nc32)[C@H](O)[C@@H]1O", "note": "[CGS-21680, 2-p-(2-carboxy-ethyl)phenethyl-amino-5'-N-ethylcarboxamido-adenosine]", "values": [
      {"measurement": "effect on the contractile variables (LVP, +dP/dtmax, -dP/dtmax)", "value": "without affect"}
    ]}
  ]
}
